Measurements: patent US20240161653A1, “IN VITRO MODEL DEVICE FOR PLACENTAL BARRIER” (CFD Research Corporation, priority 2022, published 2024)
Counter-ions that a name gives are not always drawn.

Legend:
[1] = tested on: placental barrier of the in vitro placenta device (coculture of Bewo trophoblasts and HUVEC); assay: Maternal-placental size exclusion permeability assay in the in vitro placenta device; assay type: in vitro ADME, human; details: injected into maternal vascular channel at 0.1 μL/min for 1 hour; PI = ratio of sum ROIs trophoblast to maternal vascular channel; FIG. 9B
Procedure: Again, devices can be placed in the incubator.
In another example, one embodiment of the present invention was used to evaluate maternal-placental size exclusion, where a fluorescein sodium salt (FSS) solution was injected into the maternal vascular channel at 0.1 μL/min for 1 hour. […] PI was expected to decrease as a function of compound molecular weight.

[2] = tested on: intervillous space-trophoblast barrier; assay: Morphological effects of toxic exposure in the in vitro placenta device; assay type: cell-based; details: injected into maternal channel at 3 μL/min for 4 min, then incubated at 37° C. for 15 min; FIG. 10
Text: In some embodiments, the in vitro placental model device can be used for studying toxicity of test agents to the placenta. Certain compounds not only induce fetal toxicity upon crossing the placental barrier, but also disrupt the barrier itself. The microfluidic placental barrier model can be used to study response to toxic exposure of test agents. The impact to barrier function can be assessed through permeability comparisons and toxicity (e.g., cytotoxicity, etc.) can be assessed off chip by various methods (e.g., cell lysate luminescence assay, genomic analysis, etc.).
For example, an in vitro placenta device was exposed to trypan blue by injection into the maternal channel at 3 μL/min for 4 min and then incubated at 37° C. for 15 min, similar to protocols in literature^7.8. […] White arrows show barrier degradation, and dark arrows show apoptosis following trypan blue exposure.

[3] = tested on: trophoblast channel cells; assay: Cytotoxicity by adenylate kinase release (luminescence), samples from trophoblast channel; assay type: cell-based; details: luminescence plate reader, FIG. 11
Procedure: Following exposure, FSS was injected into the maternal channel and permeability assayed. Permeability in the devices was 10-fold higher in trypan blue treated devices compared to controls. An additional assay was performed to determine cytotoxicity as it relates to the release of adenylate kinase. A positive control (100% death by lysis buffer) and a negative control (media only) were included for comparison. Samples were taken from the trophoblast channel and placed in a low volume, white walled […] plate for luminescence analysis using a plate reader. […] The increase in AK release in arbitrary luminescence units compares the toxic exposure of trypan blue to positive and negative controls.

| increase in average PI compared to 4 kD TRITC-dextran [1] [fold] | SMILES | morphological effects of exposure at the intervillous space-trophoblast barrier [2] | increase in adenylate kinase release [3] [fold] |
| --- | --- | --- | --- |
| ~2 | O=C1OC2(c3ccc(O)cc3Oc3cc(O)ccc32)c2ccccc21 [FSS, fluorescein sodium salt] | – | – |
| – | Cc1cc(-c2ccc(/N=N/c3c(S(=O)(=O)O)cc4cc(S(=O)(=O)O)cc(N)c4c3O)c(C)c2)ccc1/N=N/c1c(S(=O)(=O)O)cc2cc(S(=O)(=O)O)cc(N)c2c1O [trypan blue] | evidence of barrier degradation (e.g., cell death and detachment) and apoptosis | 1.5 |
